Assay [1] has as its target recombinant human NF-kappaB-inducing kinase (NIK/MAP3K14) (Homo sapiens (Human), UniProt Q99558). Description: Inhibition of auto-phosphorylation of recombinant human NIK/MAP3K14 (AlphaScreen). The class given is biochemical. Conditions: NIK auto-phosphorylation, 5 μM ATP, 1 nM NIK, 2 h at 25° C.; average of values. How it is done: Inhibition of auto-phosphorylation of recombinant human NF-kappaB-inducing kinase (NIK/MAP3K14) activity (AlphaScreen®)
NIK/MAP3K14 auto-phosphorylation activity was measured using the AlphaScreen® (αscreen) format (Perkin Elmer). All compounds tested were dissolved in dimethyl sulfoxide (DMSO) and further dilutions were made in assay buffer. The final DMSO concentration was 0.7% (v/v) in assays. The assay buffer was 50 mM Tris pH 7.5 containing 1 mM EGTA (ethylene glycol tetraacetic acid), 1 mM DTT (dithiothreitol), 0.1 mM Na3VO4, 5 mM MgCl2, and 0.01% Tween® 20. The assays were carried out in 384 well Proxiplates (Perkin Elmer). The incubations consisted of the compound, 5 μM Adenosine-5′-triphosphate (ATP), and 1 nM NIK/MAP3K14. Incubations were initiated by the addition of GST-tagged NIK/MAP3K14 enzyme, carried out for 2 h at 25° C. and terminated by addition of stop buffer containing anti-phospho-IKK Ser176/180 antibody. Protein A Acceptor and Glutathione-Donor beads were added before reading using an EnVision® Multilabel Plate Reader (Perkin Elmer). […] IC50's were determined by fitting a sigmoidal curve to % inhibition of control versus Log10 compound concentration.

Assay [2] deals with p-IKKα levels in L363 (NIK translocated multiple myeloma) cells. Put plainly: Effect of compounds on p-IKKα levels in L363 cells (AlphaLISA SureFire Ultra). The class given is cell-based, human. Conditions: BAFF stimulated, MG132, 6 h, average of values, read-out: Assay 2 IC50. How it is done:
Effect of Compounds on p-IKKα Levels in L363 (NIK Translocated Multiple Myeloma) Cells
All compounds tested were dissolved and serially diluted in DMSO, 1:3 dilution for 11 points in an Echo compatible plate. 100% DMSO was added to columns 12 and 24 of the plate to serve as high and low signal controls. This compound plate was used to spot 20 nL of compound or DMSO into a Greiner 384 well TC plate (781080). The final DMSO concentration was 0.3% (v/v) in cell assays. Human L363 cells (ATCC) were cultured in RPM11640 medium supplemented with GlutaMax, non-essential amino acids, sodium pyruvate and 10% fetal bovine serum. Cells were routinely maintained at densities of […] at 37° C. in a humidified 5% CO2 atmosphere incubator. Cells were passaged twice a week splitting back to obtain the low density. The day before the assay, cells were washed twice in HBSS (Hank's Balanced Salt Solution), resuspended in Dulbecco's Modified Eagle Medium (DMEM)+0.5% IgG and protease free BSA (Jackson Immuno Research Laboratories), +/−250 ng/ml recombinant human B-cell activating factor (BAFF/BLyS/TNFSF13B) and incubated overnight at 37° C. in a humidified 5% CO2 atmosphere (bulk stimulation with or without BAFF). The next day, the cell concentration was adjusted to 1×10^7 cells/ml in DMEM+/−250 ng/ml BAFF+/−10 μM MG132 and plated at 10 μl/well into compound or DMSO spotted 384 well TC plates. Seeded cells were incubated at 37° C. in a humidified 5% CO2 atmosphere for 6 h. After 6 h, the plates were removed from the incubator and cell lysis was achieved by the addition of 2.5 μl 5× lysis buffer containing protease and phosphatase inhibitors, followed by shaking on a plate shaker at room temperature for 15 min. At the end of this incubation, lysed cells were sequentially treated and incubated with acceptor and donor bead mixes according to the manufacturer's protocol for a 1 plate/2-incubation suspension cell assay (AlphaLISA SureFire Ultra p-IKKa (Ser 176/180) Assay Kit (Perkin Elmer). Plates were read using an EnVision® Multilabel Plate Reader (Perkin Elmer). Within an experiment, a concentration response curve for each compound was run in duplicate. The signal obtained in the test wells was normalized using high signal (BAFF stimulated cells, DMSO, MG132) and low signal (unstimulated cells, DMSO) controls. To determine the IC50, a sigmoidal curve was fitted to the plot of % inhibition versus Log10 compound concentration.

Read-outs that look alike come from different tables or passages of the source.

Chain of recombinant human NF-kappaB-inducing kinase (NIK/MAP3K14) (Q99558 whole entry): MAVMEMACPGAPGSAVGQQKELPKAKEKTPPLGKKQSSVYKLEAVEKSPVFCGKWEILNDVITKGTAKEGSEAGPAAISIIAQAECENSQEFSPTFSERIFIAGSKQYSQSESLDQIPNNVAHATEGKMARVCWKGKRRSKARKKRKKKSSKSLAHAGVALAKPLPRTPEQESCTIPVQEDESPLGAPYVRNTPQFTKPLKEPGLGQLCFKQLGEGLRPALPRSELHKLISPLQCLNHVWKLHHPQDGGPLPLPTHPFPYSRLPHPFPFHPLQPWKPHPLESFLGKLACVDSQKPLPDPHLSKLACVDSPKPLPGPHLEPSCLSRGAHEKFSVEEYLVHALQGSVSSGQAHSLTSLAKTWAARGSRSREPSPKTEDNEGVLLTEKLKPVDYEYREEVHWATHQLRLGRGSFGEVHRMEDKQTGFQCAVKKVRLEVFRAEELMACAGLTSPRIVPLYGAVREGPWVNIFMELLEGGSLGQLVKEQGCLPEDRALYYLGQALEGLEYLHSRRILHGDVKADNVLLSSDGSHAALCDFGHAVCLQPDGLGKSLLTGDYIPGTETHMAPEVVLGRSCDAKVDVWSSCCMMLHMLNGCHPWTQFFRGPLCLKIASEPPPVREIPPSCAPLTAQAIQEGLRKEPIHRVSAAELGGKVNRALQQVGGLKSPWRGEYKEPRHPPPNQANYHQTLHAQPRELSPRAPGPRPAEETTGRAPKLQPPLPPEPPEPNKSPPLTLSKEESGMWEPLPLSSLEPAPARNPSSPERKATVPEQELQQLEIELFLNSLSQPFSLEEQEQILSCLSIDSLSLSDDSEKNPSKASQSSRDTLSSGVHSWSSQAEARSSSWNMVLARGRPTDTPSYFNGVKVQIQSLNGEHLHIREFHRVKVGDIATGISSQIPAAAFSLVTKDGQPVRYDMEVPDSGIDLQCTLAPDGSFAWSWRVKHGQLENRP

Turning to `Nc1nccc2cnc(-c3cccc(C#CC4(O)CCc5cccnc54)c3)nc12` (stereo in doubt) [Example 46, (S)-7-[2-[3-(8-Aminopyrido[3,4-d]pyrimidin-2-yl)phenyl]ethynyl]-5,6-dihydrocyclopenta[b]pyridin-7-ol], the IC50 in assay [1] amounted to 2030 nM.

Turning to `CN1CC[C@@](O)(C#Cc2cccc(-c3cn4cncc4c(=O)[nH]3)c2)C1=O` [Example 218, (R)-6-[3-[2-(3-Hydroxy-1-methyl-2-oxo-pyrrolidin-3-yl)ethynyl]phenyl]-7H-imidazo[1,5-a]pyrazin-8-one], the IC50 in assay [1] was 78 nM; in assay [2] (Homo sapiens, L-363, 6 h), over 5000 nM. The like results for `CNc1ncnc2ccc(-c3cccc(C#C[C@]4(O)CCN(C)C4=O)c3)nc12` [Example 27, (R)-3-Hydroxy-1-methyl-3-((3-(4-(methylamino)pyrido[3,2-d]pyrimidin-6-yl)phenyl)ethynyl)pyrrolidin-2-one] were, in that order, 7.8 nM and 240 nM. On to `CN1CC[C@@](O)(C#Cc2cccc(-c3cnc4ncnc(N)c4n3)c2)C1=O` [Example 15, (R)-3-[2-[3-(4-Aminopteridin-6-yl)phenyl]ethynyl]-3-hydroxy-1-methyl-pyrrolidin-2-one], for which the IC50 in assay [1] came to 0.9 nM; in assay [2] (Homo sapiens, L-363, 6 h) it was 50 nM.

For `CN1CC[C@@](O)(C#Cc2cccc(-c3ncc4c(-c5ccccc5)cnc(N)c4n3)c2)C1=O` [Example 121, (R)-3-((3-(8-Amino-5-phenylpyrido[3,4-d]pyrimidin-2-yl)phenyl)ethynyl)-3-hydroxy-1-methylpyrrolidin-2-one], the IC50 in assay [1] amounted to 0.7 nM; in assay [2] (Homo sapiens, L-363, 6 h), 42 nM. For `CC(C)c1nc(-c2cccc(C#C[C@]3(O)CCN(C)C3=O)c2)nc2c(N)nccc12` [Example 98, (R)-3-((3-(8-Amino-4-isopropylpyrido[3,4-d]pyrimidin-2-yl)phenyl)ethynyl)-3-hydroxy-1-methylpyrrolidin-2-one] the same measures were 1.5 nM and 38 nM. `Cc1ccc(C#C[C@]2(O)CCc3cccnc32)cc1-c1nc2c(N)ncnc2s1` [Example 184, (R)-7-[2-[3-(7-Aminothiazolo[5,4-d]pyrimidin-2-yl)-4-methyl-phenyl]ethynyl]-5,6-dihydrocyclopenta[b]pyridin-7-ol]: the IC50 is at most 0.5 nM in assay [1] and 9.9 nM in assay [2] (Homo sapiens, L-363, 6 h).

`CN1CC[C@@](O)(C#Cc2cccc(-c3ccc4nc(C(F)(F)F)nc(N)c4n3)c2)C1=O` [Example 176, (R)-3-((3-(4-Amino-2-(trifluoromethyl)pyrido[3,2-d]pyrimidin-6-yl)phenyl)ethynyl)-3-hydroxy-1-methylpyrrolidin-2-one]: the IC50 in assay [1] is 1.4 nM; in assay [2] (Homo sapiens, L-363, 6 h) it was 81 nM.

With `CN1CC[C@@](O)(C#Cc2cccc(-c3ccc4ncnc(N5CC(C#N)C5)c4n3)c2)C1=O` [Example 242, (R)-1-(6-(3-((3-Hydroxy-1-methyl-2-oxopyrrolidin-3-yl)ethynyl)phenyl)pyrido[3,2-d]pyrimidin-4-yl)azetidine-3-carbonitrile], the IC50 was determined as 7.4 nM in assay [1] and 320 nM in assay [2] (Homo sapiens, L-363, 6 h). The like results for `Cc1ccc(C#C[C@@](C)(O)c2nccs2)cc1-c1ccc2ccnc(N)c2c1` [Example 68, (R)-4-[3-(1-Amino-7-isoquinolyl)-4-methyl-phenyl]-2-thiazol-2-yl-but-3-yn-2-ol] were, in that order, 55 nM and over 5000 nM. The like results for `[2H]c1nc(N)c2nc(-c3cccc(C#C[C@]4(O)CCN(C)C4=O)c3)cc(C(C)C)c2n1` [Example 283, (R)-3-((3-(4-Amino-8-isopropylpyrido[3,2-d]pyrimidin-6-yl-2-d)phenyl)ethynyl)-3-hydroxy-1-methylpyrrolidin-2-one] were, in that order, 0.6 nM and 1.4 nM. For `CN1CC[C@@](O)(C#Cc2cccc(-c3cc(-c4cccs4)c4ncnc(N)c4n3)c2)C1=O` [Example 311, (R)-3-((3-(4-Amino-8-(thiophen-2-yl)pyrido[3,2-d]pyrimidin-6-yl)phenyl)ethynyl)-3-hydroxy-1-methylpyrrolidin-2-one] the same measures were at most 0.5 nM and 3.6 nM.

As to `CN1CC[C@@](O)(C#Cc2cccc(-c3cc(C4CCN4)c4ncnc(N)c4n3)c2)C1=O` (stereo partly drawn) [Example 313, (3R)-3-((3-(4-Amino-8-(azetidin-2-yl)pyrido[3,2-d]pyrimidin-6-yl-2-d)phenyl)ethynyl)-3-hydroxy-1-methylpyrrolidin-2-one], the IC50 came to 3.1 nM in assay [1] and 231 nM in assay [2]. In the case of `C[C@@](O)(C#Cc1cccc(-c2ccc3ccnc(N)c3n2)c1)c1nccs1` [Example 90, (R)-4-[3-(8-Amino-1,7-naphthyridin-2-yl)phenyl]-2-thiazol-2-yl-but-3-yn-2-ol], the IC50 was at most 0.5 nM in assay [1] and 70 nM in assay [2] (Homo sapiens, L-363, 6 h). The like results for `CC(C)c1ncnc2ccc(-c3cccc(C#C[C@]4(O)CCN(C)C4=O)c3)nc12` [Example 272, (R)-3-Hydroxy-3-((3-(4-isopropylpyrido[3,2-d]pyrimidin-6-yl)phenyl)ethynyl)-1-methylpyrrolidin-2-one] were, in that order, 59 nM and 1960 nM.

As for `Cc1ccc(C#C[C@@]2(O)C(=O)N(C)[C@@H]3C[C@@H]32)cc1-c1nc2c(N)ncnc2s1` [Example 318, (1R,4R,5S)-4-((3-(7-Aminothiazolo[5,4-d]pyrimidin-2-yl)-4-methylphenyl)ethynyl)-4-hydroxy-2-methyl-2-azabicyclo[3.1.0]hexan-3-one], the IC50 in assay [1] is 1 nM. On the same count and under the same terms, to `Cc1ccc(C#C[C@]2(O)C[C@@H](C)N(C)C2=O)cc1-c1nc2c(N)ncnc2s1` [Example 319, (3R,5R)-3-((3-(7-Aminothiazolo[5,4-d]pyrimidin-2-yl)-4-methylphenyl)ethynyl)-3-hydroxy-1,5-dimethylpyrrolidin-2-one] belongs 1.5 nM; to `CN1CC[C@@](O)(C#Cc2cccc(-c3cc(NCC(F)(F)F)c4ncnc(N)c4n3)c2)C1=O` [Example 317, (R)-3-((3-(4-Amino-8-((2,2,2-trifluoroethyl)amino)pyrido[3,2-d]pyrimidin-6-yl)phenyl)ethynyl)-3-hydroxy-1-methylpyrrolidin-2-one], 0.6 nM. On to `CN1CC[C@@](O)(C#Cc2cccc(-c3cc(C(F)F)c4ncnc(N)c4n3)c2)C1=O` [Example 289, (R)-3-((3-(4-Amino-8-(difluoromethyl)pyrido[3,2-d]pyrimidin-6-yl)phenyl)ethynyl)-3-hydroxy-1-methylpyrrolidin-2-one], for which the IC50 in assay [1] is 1.4 nM. Regarding `CN1CC[C@@](O)(C#Cc2cccc(-c3cc(N4CC(C(F)(F)F)C4)c4ncnc(N)c4n3)c2)C1=O` [Example 315, (R)-3-[2-[3-[4-Amino-8-[3-(trifluoromethyl)azetidin-1-yl]pyrido[3,2-d]pyrimidin-6-yl]phenyl]ethynyl]-3-hydroxy-1-methyl-pyrrolidin-2-one], in assay [1], the IC50 was 5 nM.

Turning to `Cc1cc2cnc(-c3cccc(C#C[C@]4(O)CCN(C)C4=O)c3)nc2c(N)n1` [Example 44, (R)-3-((3-(8-Amino-6-methylpyrido[3,4-d]pyrimidin-2-yl)phenyl)ethynyl)-3-hydroxy-1-methylpyrrolidin-2-one], the IC50 in assay [1] is 43 nM.

As for `COC1CN(c2ncnc3ccc(-c4cccc(C#C[C@]5(O)CCN(C)C5=O)c4)nc23)C1` [Example 230, (R)-3-Hydroxy-3-((3-(4-(3-methoxyazetidin-1-yl)pyrido[3,2-d]pyrimidin-6-yl)phenyl)ethynyl)-1-methylpyrrolidin-2-one], in assay [2] (Homo sapiens, L-363, 6 h), the IC50 amounted to 350 nM.

Values taken from patent publication US20240199605A1, “SMALL MOLECULAR INHIBITORS OF NF-kB INDUCING KINASE” (Janssen Pharmaceutica NV, priority 2019, published 2024).
